Source: ChEMBL document CHEMBL1149708, “Novel sulfonamides having dual dopamine D2 and D3 receptor affinity show in vivo antipsychotic efficacy with beneficial cognitive and EPS profile” (Bioorg Med Chem Lett, 2007)
The source made the active and inactive calls. The calls are words filed in the database; no cut-off is given here.

Tests used:
[1] = molecular target: D(3) dopamine receptor (Rattus norvegicus, UniProt P19020); experiment: Displacement of [3H]spiperone from rat dopamine D3 receptor expressed in Sf9 cells
[2] = molecular target: D(2) dopamine receptor (Rattus norvegicus, UniProt P61169); experiment: Displacement of [3H]spiperone from dopamine D2 receptor in rat striatal membranes; assay type: cell membranes, Membrane
[3] = system: Mus musculus; experiment: Antipsychotic activity in orally dosed CD1 mice assessed as inhibition of […] induced climbing behavior; conditions: CD1, po
[4] = Cmax in orally dosed rat brain; assay type: ADME, organism-based; design: route oral; conditions: po
[5] = Bioavailability in rat at 10 mg/kg; assay type: ADME, organism-based; conditions: in vivo
[6] = Tmax in orally dosed rat brain; assay type: ADME, organism-based; conditions: po
[7] = molecular target: D(2) dopamine receptor (Homo sapiens) (UniProt P14416); experiment: Antagonistic activity at human D2 expressed in CHO cells by [35S]GTP-gamma-S binding assay; assay type: functional, cell-based
[8] = system: Rattus norvegicus; experiment: Catalepsy in orally dosed Wistar rat after 30 mins; assay type: functional
[9] = molecular target: D(3) dopamine receptor (Homo sapiens) (UniProt P35462); experiment: Antagonistic activity at human D3 receptor expressed in CHO cells by [35S]GTP-gamma-S binding assay; assay type: functional, cell-based
[10] = system: Rattus norvegicus; experiment: Antipsychotic activity in orally dosed Wistar rat assessed as inhibition of conditioned avoidance response after 1 hr; assay type: functional; conditions: po

D(2) dopamine receptor, sequence (P61169 whole entry): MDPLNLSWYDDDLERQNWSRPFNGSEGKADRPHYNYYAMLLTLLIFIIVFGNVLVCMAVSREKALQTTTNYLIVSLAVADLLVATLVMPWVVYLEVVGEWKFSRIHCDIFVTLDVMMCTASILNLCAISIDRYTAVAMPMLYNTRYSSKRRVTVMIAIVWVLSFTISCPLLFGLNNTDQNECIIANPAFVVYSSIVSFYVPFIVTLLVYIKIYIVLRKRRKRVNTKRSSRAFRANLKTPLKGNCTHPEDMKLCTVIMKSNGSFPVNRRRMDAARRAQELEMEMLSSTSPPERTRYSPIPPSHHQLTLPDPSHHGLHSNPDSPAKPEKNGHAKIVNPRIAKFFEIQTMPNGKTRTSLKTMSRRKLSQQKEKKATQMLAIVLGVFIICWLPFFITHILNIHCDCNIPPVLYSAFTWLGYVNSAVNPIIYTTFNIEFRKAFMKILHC
D(3) dopamine receptor, sequence (P19020 whole entry): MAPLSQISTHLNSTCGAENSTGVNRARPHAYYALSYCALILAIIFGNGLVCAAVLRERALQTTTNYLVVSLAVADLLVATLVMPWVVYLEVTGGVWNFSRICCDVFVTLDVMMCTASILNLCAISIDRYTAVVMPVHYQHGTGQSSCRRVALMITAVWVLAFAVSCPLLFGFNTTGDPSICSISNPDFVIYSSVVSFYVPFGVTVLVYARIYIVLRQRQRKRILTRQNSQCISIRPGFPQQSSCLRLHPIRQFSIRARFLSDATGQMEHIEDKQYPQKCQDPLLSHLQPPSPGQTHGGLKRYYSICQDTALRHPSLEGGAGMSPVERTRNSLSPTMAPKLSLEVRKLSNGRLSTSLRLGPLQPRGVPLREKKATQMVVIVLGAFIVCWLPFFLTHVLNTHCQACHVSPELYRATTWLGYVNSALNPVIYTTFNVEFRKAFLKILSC
D(3) dopamine receptor (Homo sapiens), sequence (P35462 whole entry): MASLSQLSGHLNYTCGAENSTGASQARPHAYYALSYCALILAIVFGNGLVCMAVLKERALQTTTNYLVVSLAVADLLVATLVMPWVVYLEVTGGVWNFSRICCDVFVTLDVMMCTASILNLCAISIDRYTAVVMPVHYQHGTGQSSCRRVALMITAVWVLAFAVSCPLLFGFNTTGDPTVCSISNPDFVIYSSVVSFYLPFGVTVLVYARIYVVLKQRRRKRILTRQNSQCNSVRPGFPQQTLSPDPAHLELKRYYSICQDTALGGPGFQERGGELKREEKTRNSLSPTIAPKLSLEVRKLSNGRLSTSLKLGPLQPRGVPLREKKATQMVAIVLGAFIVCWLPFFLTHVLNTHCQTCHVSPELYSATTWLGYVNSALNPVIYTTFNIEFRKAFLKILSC
D(2) dopamine receptor (Homo sapiens), sequence (P14416 whole entry): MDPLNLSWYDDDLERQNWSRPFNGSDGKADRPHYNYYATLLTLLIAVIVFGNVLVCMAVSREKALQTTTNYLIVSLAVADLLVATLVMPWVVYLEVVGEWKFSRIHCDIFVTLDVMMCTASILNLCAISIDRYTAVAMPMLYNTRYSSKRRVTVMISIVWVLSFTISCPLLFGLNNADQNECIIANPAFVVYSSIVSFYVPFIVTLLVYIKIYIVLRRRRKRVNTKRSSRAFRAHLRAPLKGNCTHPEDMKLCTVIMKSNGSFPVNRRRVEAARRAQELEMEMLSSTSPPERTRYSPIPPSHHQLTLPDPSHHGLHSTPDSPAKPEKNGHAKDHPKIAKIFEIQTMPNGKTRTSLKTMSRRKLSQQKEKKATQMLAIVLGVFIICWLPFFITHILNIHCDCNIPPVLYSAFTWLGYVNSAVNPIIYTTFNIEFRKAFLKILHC

IC50 [1] | IC50 [2] | SMILES | further results
4.2 nM | 39 nM | Cc1ccc(S(=O)(=O)N[C@H]2CC[C@H](CCN3CCN(c4cc(C#N)cc(C(F)(F)F)c4)CC3)CC2)cn1 | 
3.8 nM | 41 nM | O=S(=O)(N[C@H]1CC[C@H](CCN2CCC(Cc3cccc(C(F)(F)F)c3)CC2)CC1)c1ccc(Cl)cc1 | 
0.4 nM | 24 nM | N#Cc1cc(N2CCN(CC[C@H]3CC[C@H](NS(=O)(=O)c4cccnc4)CC3)CC2)cc(C(F)(F)F)c1 | ED50 [3]: 22 mg/kg; Cmax [4]: 921 ng/mL; bioavailability [5]: 55%; Tmax [6]: 1 h; Activity [7]: Active; MED [8]: >200 mg/kg; Activity [9]: Active; ED50 [10]: 11.6 mg/kg
0.7 nM | 30 nM | N#Cc1cc(N2CCN(CC[C@H]3CC[C@H](NS(=O)(=O)c4ccc5c(c4)CCC(=O)N5)CC3)CC2)cc(C(F)(F)F)c1 | 
0.9 nM | 39 nM | CC(=O)Nc1ccc(S(=O)(=O)N[C@H]2CC[C@H](CCN3CCN(c4cc(C#N)cc(C(F)(F)F)c4)CC3)CC2)cc1 | 
2 nM | 9 nM | O=S(=O)(N[C@H]1CC[C@H](CCN2CCC(Nc3cc(Cl)ccc3Cl)CC2)CC1)c1ccc(F)cc1 | 
3.3 nM | 26 nM | N#Cc1cc(N2CCN(CC[C@H]3CC[C@H](NS(=O)(=O)c4ccc(Br)cc4)CC3)CC2)cc(C(F)(F)F)c1 | 
0.5 nM | 28 nM | COc1ccc(S(=O)(=O)N[C@H]2CC[C@H](CCN3CCN(c4ccc(Br)cc4OC)CC3)CC2)cc1 | 
5.8 nM | 23 nM | N#Cc1cc(N2CCN(CC[C@H]3CC[C@H](NS(=O)(=O)c4cccc(C#N)c4)CC3)CC2)cc(C(F)(F)F)c1 | 

The next lines start with the compound.

SMILES | IC50 [1] | IC50 [2] | further results
O=C1COc2ccc(S(=O)(=O)N[C@H]3CC[C@H](CCN4CCC(Oc5cccc(C(F)(F)F)c5)CC4)CC3)cc2N1 | 1 nM | 5.3 nM | 
O=C1CCc2ccc(OCCCCN3CCN(c4cccc(Cl)c4Cl)CC3)cc2N1 [ARIPIPRAZOLE] |  |  | ED50 [10]: 17.9 mg/kg
Cc1cc2c(s1)Nc1ccccc1N=C2N1CCN(C)CC1 [OLANZAPINE] |  |  | ED50 [10]: 3.9 mg/kg
O=S(=O)(N[C@H]1CC[C@H](CCN2CCC(Cc3cccc(C(F)(F)F)c3)CC2)CC1)c1cc2ccccc2s1 | 2.6 nM | 91 nM | 
O=S(=O)(N[C@H]1CC[C@H](CCN2CCC(Cc3cccc(C(F)(F)F)c3)CC2)CC1)c1ccc(-n2cccn2)cc1 | 0.5 nM | 4.3 nM | 
O=S(=O)(N[C@H]1CC[C@H](CCN2CCN(c3cccc(Cl)c3Cl)CC2)CC1)c1cccnc1 | 0.2 nM | 4 nM | 
COc1ccc(S(=O)(=O)N[C@H]2CC[C@H](CCN3CCN(c4cccc(C#N)c4)CC3)CC2)cc1OC | 0.7 nM | 57 nM | 
